*1 amine or outer side, *2 acyl side, *3 side chain or, on linkers, in order; H or OH if unused. Where a SMILES comes first, the peptide text is derived from it. Side-chain parts run from the residue outwards. [ ]: non-standard residue; d: D form. The star is where a group is joined. Ac3c(1R,2S-2-vinyl) = C=C[C@@H]1C[C@]1(N)C(=O)O; NH(1-naphthylmethyl) = c1ccc2c(CN*)cccc2c1; NH(1-naphthyl) = c1ccc2c(N*)cccc2c1; Hyp = O=C(O)[C@@H]1C[C@@H](O)CN1; Chg = N[C@H](C(=O)O)C1CCCCC1; X2 = c1ccc(C2CN(*)CCO2)cc1; X3 = c1ccc(C2CCN(*)C2)cc1; Morpholide = C1CN(*)CCO1; Piperidide = C1CCN(*)CC1; Pyrrolidide = C1CCN(*)C1; X4 = c1ccc(C2COCCN2*)cc1; X5 = c1ccc2c(c1)CN(*)C2; X1 = c1ccc2c(c1)CCN2*; CO = O=C([*:1])[*:2]
Assays:
Hepatitis C virus = assay: Antiviral activity against Hepatitis C virus infected in human HuH7 cells assessed as inhibition of HCV subgenomic replicon replication after 72 hrs by ELISA; type: functional, organism-based, Hepacivirus hominis, Huh-7; conditions: Hepatitis C virus, Huh-7, 72 h; read-out: EC50
[1] = Inhibition of Hepatitis C virus full-length NS3/4A protease assessed as quenched-fluorogenic RET-S1 substrate cleavage incubated for 10 mins prior to substrate addition by FRET analysis; set-up: species or system Hepacivirus hominis

Row | SMILES | EC50 (Hepatitis C virus) [nM] | IC50 [1] [nM]
1 | CC(C)(C)OC(=O)N[C@H]1CCCCC/C=C\[C@@H]2C[C@@]2(C(=O)NS(=O)(=O)C2CC2)NC(=O)[C@@H]2C[C@@H](NS(=O)(=O)c3cccc4ccccc34)CN2C1=O | > 10000 | 470
2 | CC(C)(C)OC(=O)N[C@H]1CCCCC/C=C\[C@@H]2C[C@@]2(C(=O)NS(=O)(=O)C2CC2)NC(=O)[C@@H]2C[C@@H](NC(=S)N3CCc4ccccc4C3)CN2C1=O | 365 | 8.2
3 | CC(C)(C)OC(=O)N[C@H]1CCCCC/C=C\[C@@H]2C[C@@]2(C(=O)NS(=O)(=O)C2CC2)NC(=O)[C@@H]2C[C@@H](Nc3nc4ccccc4o3)CN2C1=O | 730 | 21
4 | CC(C)(C)OC(=O)N[C@H]1CCCCC/C=C\[C@@H]2C[C@@]2(C(=O)NS(=O)(=O)C2CC2)NC(=O)[C@@H]2C[C@@H](NC(=O)c3cc4ccccc4s3)CN2C1=O | 21 | 1.4
5 | CC(C)(C)OC(=O)N[C@H]1CCCCC/C=C\[C@@H]2C[C@@]2(C(=O)NS(=O)(=O)C2CC2)NC(=O)[C@@H]2C[C@@H](NC(=O)c3sc4cccc(Cl)c4c3Cl)CN2C1=O | 9.5 | 1.4
6 | CC(C)(C)OC(=O)N[C@H]1CCCCC/C=C\[C@@H]2C[C@@]2(C(=O)NS(=O)(=O)C2CC2)NC(=O)[C@@H]2C[C@@H](NC(=O)c3nc4ccccc4s3)CN2C1=O | 13 | 3.5
7 | CC(C)(C)OC(=O)N[C@H]1CCCCC/C=C\[C@@H]2C[C@@]2(C(=O)NS(=O)(=O)C2CC2)NC(=O)[C@@H]2C[C@@H](NC(=O)c3nc4cc(Cl)ccc4s3)CN2C1=O | 126 | 5.2
8 | CC(C)(C)OC(=O)N[C@H]1CCCCC/C=C\[C@@H]2C[C@@]2(C(=O)NS(=O)(=O)C2CC2)NC(=O)[C@@H]2C[C@@H](NC(=O)c3nc4ccccc4[nH]3)CN2C1=O | 614 | 6.4
9 | CC(C)(C)OC(=O)N[C@H]1CCCCC/C=C\[C@@H]2C[C@@]2(C(=O)NS(=O)(=O)C2CC2)NC(=O)[C@@H]2C[C@@H](O)CN2C1=O | 2130 | 75
10 | CO[C@@H]1C[C@H]2C(=O)N[C@]3(C(=O)NS(=O)(=O)C4CC4)C[C@H]3/C=C\CCCCC[C@H](NC(=O)OC(C)(C)C)C(=O)N2C1 | 6300 | 220
11 | CC(=O)O[C@@H]1C[C@H]2C(=O)N[C@]3(C(=O)NS(=O)(=O)C4CC4)C[C@H]3/C=C\CCCCC[C@H](NC(=O)OC(C)(C)C)C(=O)N2C1 | 3910 | 12
12 | N[C@H]1CCCCC/C=C\[C@@H]2C[C@@]2(C(=O)NS(=O)(=O)C2CC2)NC(=O)[C@@H]2C[C@@H](OC(=O)N3Cc4cccc(F)c4C3)CN2C1=O | 3050 | 20
13 | N[C@H]1CCCCC/C=C\[C@@H]2C[C@@]2(C(=O)NS(=O)(=O)C2CC2)NC(=O)[C@@H]2C[C@@H](OC(=O)N3Cc4cccc(Cl)c4C3)CN2C1=O | 150 | 3
14 | CC(C)(C)OC(=O)N[C@H]1CCOCCCC[C@@H]2C[C@@]2(C(=O)NS(=O)(=O)C2CC2)NC(=O)[C@@H]2C[C@@H](OC(=O)N3Cc4cccc(F)c4C3)CN2C1=O | 19 | 0.7
15 | CC(C)(C)OC(=O)N[C@H]1CCCOCCC[C@@H]2C[C@@]2(C(=O)NS(=O)(=O)C2CC2)NC(=O)[C@@H]2C[C@@H](OC(=O)N3Cc4cccc(F)c4C3)CN2C1=O | 254 | 1
16 | CC(C)(C)OC(=O)N[C@H]1CCC(F)(F)CC/C=C\[C@@H]2C[C@@]2(C(=O)NS(=O)(=O)C2CC2)NC(=O)[C@@H]2C[C@@H](OC(=O)N3Cc4cccc(F)c4C3)CN2C1=O | 7.2 | 1.5
17 | CC(C)(C)OC(=O)N[C@H]1CCCC(F)(F)C/C=C\[C@@H]2C[C@@]2(C(=O)NS(=O)(=O)C2CC2)NC(=O)[C@@H]2C[C@@H](OC(=O)N3Cc4cccc(F)c4C3)CN2C1=O | 44 | 0.5
18 | CC(C)(C)OC(=O)N[C@H]1CCNCC/C=C\[C@@H]2C[C@@]2(C(=O)NS(=O)(=O)C2CC2)NC(=O)[C@@H]2C[C@@H](OC(=O)N3Cc4cccc(F)c4C3)CN2C1=O | 1830 | 9.7
19 | CC(C)(C)OC(=O)N[C@H]1CCN(CC(F)(F)F)CC/C=C\[C@@H]2C[C@@]2(C(=O)NS(=O)(=O)C2CC2)NC(=O)[C@@H]2C[C@@H](OC(=O)N3Cc4cccc(F)c4C3)CN2C1=O | 24 | 1.8
20 | CN1CC/C=C\[C@@H]2C[C@@]2(C(=O)NS(=O)(=O)C2CC2)NC(=O)[C@@H]2C[C@@H](OC(=O)N3Cc4cccc(F)c4C3)CN2C(=O)[C@@H](NC(=O)OC(C)(C)C)CC1 | 837 | 7
21 | CC(C)(C)OC(=O)N[C@H]1CCC(F)(F)CCCC[C@@H]2C[C@@]2(C(=O)NS(=O)(=O)C2CC2)NC(=O)[C@@H]2C[C@@H](OC(=O)N3Cc4cccc(F)c4C3)CN2C1=O | 6.8 | 0.8

Row | SMILES | EC50 (Hepatitis C virus) [nM] | IC50 [1] [nM]
22 | CC(C)(C)OC(=O)N[C@H]1CCCC(F)(F)CCC[C@@H]2C[C@@]2(C(=O)NS(=O)(=O)C2CC2)NC(=O)[C@@H]2C[C@@H](OC(=O)N3Cc4cccc(F)c4C3)CN2C1=O | 46 | 1.3
23 | CC(C)(C)OC(=O)N[C@H]1CCCCC/C=C\[C@@H]2C[C@@]2(C(=O)NS(=O)(=O)C2CC2)NC(=O)[C@@H]2C[C@@H](NC(=O)N3CCc4ccccc4C3)CN2C1=O | 362 | 2.9
24 | CC(C)(C)OC(=O)N[C@H]1CCCCC/C=C\[C@@H]2C[C@@]2(C(=O)NS(=O)(=O)C2CC2)NC(=O)[C@@H]2C[C@@H](NC(=O)N3Cc4ccccc4C3)CN2C1=O | 47 | 2.3
25 | CC(C)(C)OC(=O)N[C@H]1CCCCCC[C@@H]2C[C@@]2(C(=O)NS(=O)(=O)C2CC2)NC(=O)[C@@H]2C[C@@H](OC(=O)N3Cc4cccc(F)c4C3)CN2C1=O | 22.5 | 1.5
26 | CC(C)(C)OC(=O)N[C@H]1CCCCCCC[C@@H]2C[C@@]2(C(=O)NS(=O)(=O)C2CC2)NC(=O)[C@@H]2C[C@@H](OC(=O)N3Cc4cccc(F)c4C3)CN2C1=O | 5.8 | 0.7
27 | CC(C)(C)OC(=O)N[C@H]1COCCC/C=C\[C@@H]2C[C@@]2(C(=O)NS(=O)(=O)C2CC2)NC(=O)[C@@H]2C[C@@H](OC(=O)N3Cc4cccc(F)c4C3)CN2C1=O | 70.2 | 1.8
28 | CC(C)(C)OC(=O)N[C@H]1CCOCC/C=C\[C@@H]2C[C@@]2(C(=O)NS(=O)(=O)C2CC2)NC(=O)[C@@H]2C[C@@H](OC(=O)N3Cc4cccc(F)c4C3)CN2C1=O | 33 | 1.2
29 | CC(C)(C)OC(=O)N[C@H]1CCCOC/C=C\[C@@H]2C[C@@]2(C(=O)NS(=O)(=O)C2CC2)NC(=O)[C@@H]2C[C@@H](OC(=O)N3Cc4cccc(F)c4C3)CN2C1=O | 155 | 0.8
30 | CC(C)(C)OC(=O)N[C@H]1COCCCCC[C@@H]2C[C@@]2(C(=O)NS(=O)(=O)C2CC2)NC(=O)[C@@H]2C[C@@H](OC(=O)N3Cc4cccc(F)c4C3)CN2C1=O | 12.4 | 1.2
31 | O=C(N[C@H]1CCCCC/C=C\[C@@H]2C[C@@]2(C(=O)NS(=O)(=O)C2CC2)NC(=O)[C@@H]2C[C@@H](OC(=O)N3CCc4ccccc4C3)CN2C1=O)OC1CCCC1 | 6 | 1
32 | C=C[C@@H]1C[C@]1(NC(=O)[C@@H]1C[C@@H](OC(=O)N2CCOCC2)CN1C(=O)[C@@H](NC(=O)[C@@H](NC(C)=O)C1CCCCC1)C(C)C)C(=O)O (Ac-[Chg]V[Hyp]([CO-Morpholide])[Ac3c(1R,2S-2-vinyl)]-OH) |  | 47100
33 | C=C[C@@H]1C[C@]1(NC(=O)[C@@H]1C[C@@H](OC(=O)Nc2cccc3ccccc23)CN1C(=O)[C@@H](NC(=O)[C@@H](NC(C)=O)C1CCCCC1)C(C)C)C(=O)O (Ac-[Chg]V[Hyp]([CO-NH(1-naphthyl)])[Ac3c(1R,2S-2-vinyl)]-OH) |  | 818
34 | C=C[C@@H]1C[C@]1(NC(=O)[C@@H]1C[C@@H](OC(=O)NCc2cccc3ccccc23)CN1C(=O)[C@@H](NC(=O)[C@@H](NC(C)=O)C1CCCCC1)C(C)C)C(=O)O (Ac-[Chg]V[Hyp]([CO-NH(1-naphthylmethyl)])[Ac3c(1R,2S-2-vinyl)]-OH) |  | 835
35 | C=C[C@@H]1C[C@]1(NC(=O)[C@@H]1C[C@@H](OC(=O)N2CCCCC2)CN1C(=O)[C@@H](NC(=O)[C@@H](NC(C)=O)C1CCCCC1)C(C)C)C(=O)O (Ac-[Chg]V[Hyp]([CO-Piperidide])[Ac3c(1R,2S-2-vinyl)]-OH) |  | 4290
36 | C=C[C@@H]1C[C@]1(NC(=O)[C@@H]1C[C@@H](OC(=O)N2CCCC2)CN1C(=O)[C@@H](NC(=O)[C@@H](NC(C)=O)C1CCCCC1)C(C)C)C(=O)O (Ac-[Chg]V[Hyp]([CO-Pyrrolidide])[Ac3c(1R,2S-2-vinyl)]-OH) |  | 14900
37 | C=C[C@@H]1C[C@]1(NC(=O)[C@@H]1C[C@@H](OC(=O)N2CCc3ccccc32)CN1C(=O)[C@@H](NC(=O)[C@@H](NC(C)=O)C1CCCCC1)C(C)C)C(=O)O (Ac-[Chg]V[Hyp]([CO-X1])[Ac3c(1R,2S-2-vinyl)]-OH) |  | 200
38 | C=C[C@@H]1C[C@]1(NC(=O)[C@@H]1C[C@@H](OC(=O)N2CCOC(c3ccccc3)C2)CN1C(=O)[C@@H](NC(=O)[C@@H](NC(C)=O)C1CCCCC1)C(C)C)C(=O)O (stereo partly drawn) (Ac-[Chg]V[Hyp]([CO-X2])[Ac3c(1R,2S-2-vinyl)]-OH) |  | 4770
39 | C=C[C@@H]1C[C@]1(NC(=O)[C@@H]1C[C@@H](OC(=O)N2CCC(c3ccccc3)C2)CN1C(=O)[C@@H](NC(=O)[C@@H](NC(C)=O)C1CCCCC1)C(C)C)C(=O)O (stereo partly drawn) (Ac-[Chg]V[Hyp]([CO-X3])[Ac3c(1R,2S-2-vinyl)]-OH) |  | 735
40 | C=C[C@@H]1C[C@]1(NC(=O)[C@@H]1C[C@@H](OC(=O)N2CCOCC2c2ccccc2)CN1C(=O)[C@@H](NC(=O)[C@@H](NC(C)=O)C1CCCCC1)C(C)C)C(=O)O (stereo partly drawn) (Ac-[Chg]V[Hyp]([CO-X4])[Ac3c(1R,2S-2-vinyl)]-OH) |  | 5500
41 | C=C[C@@H]1C[C@]1(NC(=O)[C@@H]1C[C@@H](OC(=O)N2Cc3ccccc3C2)CN1C(=O)[C@@H](NC(=O)[C@@H](NC(C)=O)C1CCCCC1)C(C)C)C(=O)O (Ac-[Chg]V[Hyp]([CO-X5])[Ac3c(1R,2S-2-vinyl)]-OH) |  | 186

Source: ChEMBL document CHEMBL3120136 (J Med Chem, 2014)
